The results in this text go back to ChEMBL document CHEMBL1146173, “New pyrimido[5,4-b]indoles and [1]benzothieno[3,2-d]pyrimidines: high affinity ligands for the alpha(1)-adrenoceptor subtypes” (Bioorg Med Chem Lett, 2006).

The structures appear in SMILES notation.

A word on the Ki: it is a measure of affinity in units of concentration, obtained from inhibition or displacement. A higher Ki goes with lower affinity. The pKb is the Kb on a negative log10 scale, so that one unit is a factor of ten. Read a low pKb as a large Kb.

For test [1], the target named is T1, Alpha-1A adrenergic receptor (Homo sapiens, UniProt P35348).
T1 sequence (P35348 whole entry): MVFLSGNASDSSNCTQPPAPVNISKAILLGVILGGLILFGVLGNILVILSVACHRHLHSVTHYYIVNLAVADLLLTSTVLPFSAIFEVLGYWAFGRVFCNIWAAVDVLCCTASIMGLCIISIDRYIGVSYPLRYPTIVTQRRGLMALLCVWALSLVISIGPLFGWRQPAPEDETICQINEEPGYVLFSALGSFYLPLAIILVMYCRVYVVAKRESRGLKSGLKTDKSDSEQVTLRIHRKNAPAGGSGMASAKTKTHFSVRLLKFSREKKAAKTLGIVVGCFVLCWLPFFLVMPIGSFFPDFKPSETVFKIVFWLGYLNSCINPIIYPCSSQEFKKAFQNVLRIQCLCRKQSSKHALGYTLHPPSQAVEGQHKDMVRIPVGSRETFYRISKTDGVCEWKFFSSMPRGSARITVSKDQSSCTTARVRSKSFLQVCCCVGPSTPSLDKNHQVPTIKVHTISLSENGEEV
In words: Displacement of [125I]BE2254 from human cloned adrenergic alpha 1A receptor expressed in HEK293 cells. The format is cell-based. On the technique in general: In a radioligand displacement assay an active substance lowers the binding of a labelled ligand.

The target of test [2] is T2, Alpha-1B adrenergic receptor (Homo sapiens, UniProt P35368).
T2 sequence (P35368 whole entry): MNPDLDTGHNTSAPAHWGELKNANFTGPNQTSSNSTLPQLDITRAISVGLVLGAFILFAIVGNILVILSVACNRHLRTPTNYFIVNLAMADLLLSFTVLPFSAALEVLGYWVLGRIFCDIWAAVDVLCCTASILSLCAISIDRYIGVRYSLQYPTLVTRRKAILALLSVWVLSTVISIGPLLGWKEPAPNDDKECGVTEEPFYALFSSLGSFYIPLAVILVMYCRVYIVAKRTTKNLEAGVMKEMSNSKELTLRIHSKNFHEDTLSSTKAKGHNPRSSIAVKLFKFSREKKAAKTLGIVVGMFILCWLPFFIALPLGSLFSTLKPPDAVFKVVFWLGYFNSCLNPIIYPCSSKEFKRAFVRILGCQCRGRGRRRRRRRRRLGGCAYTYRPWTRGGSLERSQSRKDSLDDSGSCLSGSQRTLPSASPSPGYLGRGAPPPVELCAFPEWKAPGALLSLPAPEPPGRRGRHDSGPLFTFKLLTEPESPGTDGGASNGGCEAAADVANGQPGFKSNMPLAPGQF
In words: Displacement of [125I]BE2254 from human cloned adrenergic alpha 1B receptor expressed in HEK293 cells. The class given is cell-based.

Test [3] addresses T3, Alpha-1D adrenergic receptor (Homo sapiens, UniProt P25100).
T3 sequence (P25100 whole entry): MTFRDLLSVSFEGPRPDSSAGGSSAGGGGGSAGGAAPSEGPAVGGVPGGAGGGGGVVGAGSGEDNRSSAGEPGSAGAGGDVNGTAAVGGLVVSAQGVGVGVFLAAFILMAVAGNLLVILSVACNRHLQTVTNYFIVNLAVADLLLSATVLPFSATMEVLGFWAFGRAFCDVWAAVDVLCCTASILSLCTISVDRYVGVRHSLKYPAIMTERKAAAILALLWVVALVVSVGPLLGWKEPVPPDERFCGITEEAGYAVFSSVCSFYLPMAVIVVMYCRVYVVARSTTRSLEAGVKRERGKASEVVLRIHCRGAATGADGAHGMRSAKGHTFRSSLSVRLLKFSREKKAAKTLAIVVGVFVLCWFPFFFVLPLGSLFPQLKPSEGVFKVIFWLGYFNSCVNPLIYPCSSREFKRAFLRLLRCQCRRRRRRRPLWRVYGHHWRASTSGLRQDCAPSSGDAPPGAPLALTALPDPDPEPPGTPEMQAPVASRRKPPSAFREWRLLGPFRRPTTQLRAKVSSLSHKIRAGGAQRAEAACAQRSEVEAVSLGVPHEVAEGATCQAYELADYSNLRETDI
Description: Displacement of [125I]BE2254 from human cloned adrenergic alpha 1D receptor expressed in HEK293 cells. The class given is cell-based. The following applies: for Log Ki: hek293.

Test [4] deals with T4, Alpha-1A adrenergic receptor (Rattus norvegicus) (UniProt P43140).
T4 sequence (whole entry): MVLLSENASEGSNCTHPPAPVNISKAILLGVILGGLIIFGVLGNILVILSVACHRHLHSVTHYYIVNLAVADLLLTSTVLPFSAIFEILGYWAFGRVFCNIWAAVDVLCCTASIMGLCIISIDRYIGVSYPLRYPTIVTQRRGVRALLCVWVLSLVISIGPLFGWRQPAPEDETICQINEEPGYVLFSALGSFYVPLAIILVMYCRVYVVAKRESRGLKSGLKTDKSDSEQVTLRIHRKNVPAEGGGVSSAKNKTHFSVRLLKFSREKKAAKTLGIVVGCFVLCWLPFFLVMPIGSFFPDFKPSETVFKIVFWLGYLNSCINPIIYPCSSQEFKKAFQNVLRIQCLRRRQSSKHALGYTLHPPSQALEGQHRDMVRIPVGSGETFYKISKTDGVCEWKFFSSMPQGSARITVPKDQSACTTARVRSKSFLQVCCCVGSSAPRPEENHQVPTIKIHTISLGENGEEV
In words: Antagonist activity at adrenergic alpha 1A receptor in rat prostatic vas deferens. The class given is functional, tissue-based.

The target in test [5] is T5, Alpha-1B adrenergic receptor (Rattus norvegicus) (UniProt P15823).
T5 sequence (whole entry): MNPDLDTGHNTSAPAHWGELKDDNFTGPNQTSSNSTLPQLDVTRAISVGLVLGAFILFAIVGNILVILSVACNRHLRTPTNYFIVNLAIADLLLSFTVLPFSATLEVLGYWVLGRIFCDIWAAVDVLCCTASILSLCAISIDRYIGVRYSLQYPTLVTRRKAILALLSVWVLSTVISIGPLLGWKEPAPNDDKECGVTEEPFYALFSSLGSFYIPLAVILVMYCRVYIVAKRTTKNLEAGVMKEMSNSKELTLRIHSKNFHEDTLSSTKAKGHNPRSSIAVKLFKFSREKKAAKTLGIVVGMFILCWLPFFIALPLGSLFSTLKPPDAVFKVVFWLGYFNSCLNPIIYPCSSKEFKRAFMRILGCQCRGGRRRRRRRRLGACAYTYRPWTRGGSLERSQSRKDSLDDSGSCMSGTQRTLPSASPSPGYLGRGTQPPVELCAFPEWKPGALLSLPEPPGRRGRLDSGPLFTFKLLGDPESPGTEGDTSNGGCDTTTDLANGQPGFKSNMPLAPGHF
In words: Antagonist activity at adrenergic alpha 1B receptor in rat spleen. The class given is functional, tissue-based.

For test [6], the target named is T6, Alpha-1D adrenergic receptor (Rattus norvegicus) (UniProt P23944).
T6 sequence (whole entry): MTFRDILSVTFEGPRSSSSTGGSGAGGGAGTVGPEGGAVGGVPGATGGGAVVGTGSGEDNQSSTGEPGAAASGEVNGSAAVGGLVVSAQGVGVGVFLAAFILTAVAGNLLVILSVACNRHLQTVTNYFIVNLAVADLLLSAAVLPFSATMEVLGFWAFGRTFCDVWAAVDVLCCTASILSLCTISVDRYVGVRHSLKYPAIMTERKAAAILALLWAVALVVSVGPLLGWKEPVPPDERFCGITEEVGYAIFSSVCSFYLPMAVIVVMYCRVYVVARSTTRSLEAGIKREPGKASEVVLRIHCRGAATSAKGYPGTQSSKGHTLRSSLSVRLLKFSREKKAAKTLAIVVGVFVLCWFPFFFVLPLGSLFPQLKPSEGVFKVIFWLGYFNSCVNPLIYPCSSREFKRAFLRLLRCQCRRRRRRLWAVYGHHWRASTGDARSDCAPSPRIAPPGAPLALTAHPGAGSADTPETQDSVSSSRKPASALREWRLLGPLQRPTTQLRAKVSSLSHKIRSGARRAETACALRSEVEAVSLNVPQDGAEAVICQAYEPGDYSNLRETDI
Description: Antagonist activity at adrenergic alpha 1D receptor in rat thoracic aorta. The format is functional, tissue-based.

`COc1ccccc1N1CCN(CCn2c(C)nc3c(sc4ccccc43)c2=O)CC1`: the results for the Ki in test [1], in test [2] and in test [3] were 1.48 nM, 17.4 nM and 0.398 nM, respectively. In addition, the pKb in test [4] is 8.65; in test [5], 7.63; in test [6] it was 8.98.

As to `COc1ccc(Cl)cc1N1CCN(CCn2c(C)nc3c(sc4ccccc43)c2=O)CC1`, the Ki was 3.47 nM in test [1], 17.4 nM in test [2] and 0.832 nM in test [3]. The pKb in test [4] is 7.52; in test [5] it was 8.91; in test [6], 7.57.

As to `Cc1nc2c([nH]c3ccccc32)c(=O)n1CCN1CCN(c2ccc(Cl)c(Cl)c2)CC1`, the Ki in test [1] is 30.2 nM; in test [2], 83.2 nM; in test [3], 7.41 nM.

Consider `COc1ccc(Cl)cc1N1CCN(CCn2c(=O)[nH]c3c(sc4ccccc43)c2=O)CC1`, for which the Ki in test [1] was 53.7 nM; in test [2], 91.2 nM; in test [3], 13.5 nM.

Consider `COc1ccccc1N1CCN(CCn2c(C)nc3c4ccccc4nc-3c2O)CC1`, for which the “Log Ki” value was -8.52 in test [1] (hek293) and -9.39 in test [3]. The pKb in test [4] was found to be 8.53; in test [5] it was 9.73; in test [6], 9.24.

As to `COc1ccc(Cl)cc1N1CCN(CCn2c(=O)[nH]c3c([nH]c4ccccc43)c2=O)CC1`, the Ki was 8.32 nM in test [1], 10.7 nM in test [2] and 1.55 nM in test [3].

As to `COc1ccc(Cl)cc1N1CCN(CCn2c(C)nc3c([nH]c4ccccc43)c2=O)CC1`, the Ki in test [1] is 1.32 nM; in test [2], 4.47 nM; in test [3] it was 0.166 nM. The pKb in test [4] amounted to 7.6; in test [5] it was 8.68; in test [6] it was 8.39.

On to `Cn1c(=O)n(CCN2CCN(c3ccc(Cl)c(Cl)c3)CC2)c(=O)c2c1c1ccccc1n2C`, for which the inhibitory constant (Ki) is 182 nM in test [1], 603 nM in test [2] and 437 nM in test [3].

In the case of `COc1ccccc1N1CCN(CCn2c(=O)[nH]c3c([nH]c4ccccc43)c2=O)CC1`, the inhibition constant (Ki) in test [1] was 0.288 nM. Further, the “Log Ki” value in test [3] is -9.44. The pKb turned out to be 8.46 in test [4], 8.67 in test [5] and 8.71 in test [6].

Turning to `O=c1[nH]c2c(sc3ccccc32)c(=O)n1CCN1CCN(c2ccc(Cl)c(Cl)c2)CC1`, the Ki was 4270 nM in test [1], 19100 nM in test [2] and 309 nM in test [3].

On to `COc1ccccc1N1CCN(CCn2c(=O)[nH]c3c(sc4ccccc43)c2=O)CC1`, for which the figures for the Ki in test [1], in test [2] and in test [3] were 3.31 nM, 8.91 nM and 1.26 nM, respectively. Further, the pKb was 8.61 in test [4], 8.44 in test [5] and 8.89 in test [6].
